According to patent US8404239B2, “Anti-Notch2 NRR antibodies” (Genentech, Inc., priority 2008, dated 2013):

Key:
Notch1 signaling = assay: Co-culture Notch reporter assay, Notch1 signaling (NIH-3T3 Notch1 cells + ligand cells); assay type: cell-based; details: Jag1-induced; α-gD 2000 ng/ml; DAPT 5 μM
Description: (§1) NIH-3T3 cells stably transfected with Jag1 were used to induce Notch signaling in NIH-3T3 cells stably transfected with Notch1 (except for “−Jag1”, which used untransfected NIH-3T3 cells in place of the Jag1-expressing cells). […] NIH-3T3 cells stably transfected with Jag1 were used to induce Notch signaling in U87MG cells, which express high levels of Notch2. The assay was performed as described in (A). […] The assay was performed as in (A) except that the receptor-expressing cells were generated by transient transfection of plasmids expressing the indicated Notch1 receptors.
NIH-3T3 cells either stably transfected with Notch 1 or transiently transfected with plasmids containing other Notch receptors were co-transfected with a Notch-responsive TP-1 (12× CSL) Firefly luciferase reporter and a constitutively active Renilla Luciferase reporter (pRL-CMV, Promega) to control for transfection efficiency. […] After 20 hours, firefly and Renilla luciferase are measured with Dual Glo Luciferase Assay system (Promega). Eight replicates were analyzed for each condition by dividing the Firefly signal by the Renilla signal to control for transfection efficiency. The mean and standard deviation were calculated and values were normalized to calculated values for co-culture stimulated with NIH-3T3 cells without ligand transfected.

Notch2 signaling = assay: Co-culture Notch reporter assay, Notch2 signaling (U87MG cells + Jag1 cells); assay type: cell-based; details: Jag1-induced; DAPT 5 μM
Description: as §1
Co-culture assay in U87MG cells, as described in FIG. 10B.
NIH-3T3 cells either stably transfected with Notch 1 or transiently transfected with plasmids containing other Notch receptors were co-transfected with a Notch-responsive TP-1 (12× CSL) Firefly luciferase reporter and a constitutively active Renilla Luciferase reporter (pRL-CMV, Promega) to control for transfection efficiency. Cells are allowed to recover from the transfection from 6 hours to overnight. Treatments of antibodies and NIH-3T3 cells stably transfected with ligand are used to stimulate the receptor cells. After 20 hours, firefly and Renilla luciferase are measured with Dual Glo Luciferase Assay system (Promega). Eight replicates were analyzed for each condition by dividing the Firefly signal by the Renilla signal to control for transfection efficiency. The mean and standard deviation were calculated and values were normalized to calculated values for co-culture stimulated with NIH-3T3 cells without ligand transfected.

SK23 melanoma cells = assay: Cell Titer Glo viability of melanoma cell line SK23; assay type: cell-based, human; details: six days, antibodies 20 mg/ml, DAPT 5 μM, ± Jagged-1
Description: (§2) Human melanoma cell lines SK23 and LOX-IMVI were plated in medium containing 2% FBS at low density (4000 cells/well for SK23, 2500 cells/well for LOX-IMVI) in 96 well plates that were coated without (−jag-1) or with Jagged-1 ligand (+jag-1) (R&D Systems, Minneapolis, Minn.). […] An equal volume of DMSO served as the vehicle control, whereas an equal concentration of anti-gD HuB6 phage antibody served as the isotype control antibody. Cell Titer Glo assays (Promega, Madison, Wis.) were performed six days after plating. […] In FIGS. 25A and 25B, cell viability (y-axis) is expressed relative to the values from the DMSO vehicle, −jag-1 control wells.

LOX-IMVI melanoma cells = assay: Cell Titer Glo viability of melanoma cell line LOX-IMVI; assay type: cell-based, human; details: six days, antibodies 20 mg/ml, DAPT 5 μM, ± Jagged-1
Description: as §2

HUVECs = assay: HUVEC fibrin gel bead endothelial cell sprouting assay; assay type: cell-based, human; details: HUVEC co-cultured with skin fibroblasts; 1 μM DBZ, 5 μg/ml antibodies
Description: (A) In vitro endothelial cell sprouting assay. HUVECs were coated on Cytodex beads and co-cultured with skin fibroblasts. Cultures were either mock treated (control) or treated with 1 μM of DBZ, 5 μg/ml of α-NRR1 or 5 μg/ml of α-D114. Bar=100 μm. (B) Sprout length measurements from the cultures in (A). (C) Mouse neonate retinal assay for endothelial cell sprouting and angiogenesis. Mouse neonates were injected at P1 and P3 with the indicated antibodies, and retinas were prepared at P5 to visualize perfusion of isolectin or the Ki67 marker for proliferation. Panels I and II, Bar=1 mm. Panels III-VI represent enlargements of part of panels I and II, bar=0.2 mm.
HUVEC cells were grown on fibrin gel beads as previously described (Nakatsu et al., 2003). Cytodex 3 beads (Amersham Pharmacia Biotech) were coated with 350-400 HUVECs per bead in 2 ml EGM-2 medium (Clonetics). About 200 HUVEC coated beads were imbedded in fibrin clot in one well of 12-well tissue culture plate. […] Medium was changed every two days. After seven to nine days, fibrin gels were then fixed with 4% paraformaldehyde and endothelial cells were stained with anti-CD31 (R&D Systems AF806) using a FITC-conjugated secondary antibody for detection.

[1] = test system: intestinal cell differentiation; assay: Histology and immunohistochemistry of mouse intestine tissue; assay type: in vivo
Excerpt: (A) Total body weight change (mean+/−standard deviation) vs. time. […] Arrows mark the days of dosing. (B) Immunohistochemical analyses of small intestines. […] In each row as indicated, staining is shown for haemotoxylin and eosin (H & E), Alcian Blue for mucin and to mark secretory goblet cells, lysozyme to mark Paneth cells, Ki-67 for proliferation and Hes1 as a Notch downstream target. See FIGS. 19 and 20 for analyses of the large intestine at day 7 and of the small intestine at day 2, respectively. Bar=40 μm. (C) Comparison of Notch1- versus Notch2-specific inhibition on small intestinal cell differentiation. Small intestines from the study described in (A) were prepared for Alcian Blue and Ki-67 one day after the final dosing with α-gD, α-NRR1 or α-NRR2, as indicated. Bar=50 μm.
Formalin-fixed and paraffin-embedded mouse small intestine tissues were sectioned at 3 micron thickness. Histochemical identification of intestinal cell types was performed with Alcian blue as recommended by the manufacturer (PolyScientific). For anti-Ki67 staining, sections were pretreated with Target Retrieval Solution (S1700, DAKO), and incubated with rabbit anti-Ki67 (1:200, clone SP6, Neomarkers). Secondary goat anti-rabbit at 7.5 μg/ml (Vector labs) was detected with the Vectastain ABC Elite Kit (Vector labs). Ki67 stained sections were counterstained with Mayer's haemotoxylin. For anti-lysozyme staining, sections were processed on the Discovery XT platform (Ventana Medical Systems, Inc.) using CC1m epitope recovery conditions, OmniMap-rabbit detection and Ventana haemotoxylin II/with bluing counterstain. For HES-1 staining, anti-rat HES-1 (clone NM1, MBL, International) was followed by TSA-HRP.
The effect of inhibiting both Notch1 and Notch2 on intestinal cell fate determination was also investigated. […] The intestines were harvested and stained with H&E to reveal the crypt morphology. […] Further experimentation confirmed this observation.

| Compound | effect on Notch1 reporter signaling (Notch1 signaling) | effect on Notch2 reporter signaling (Notch2 signaling) | cell viability (SK23 melanoma cells) | cell viability (LOX-IMVI melanoma cells) | endothelial cell sprouts (number and length) (HUVECs) | Notch signaling (Hes1 staining), large intestine ([1]; day 7) | goblet cell numbers (Alcian Blue and H&E), large intestine ([1]; day 7) | progenitor cell proliferation (Ki-67), large intestine ([1]; day 7) | Hes1 expression, small intestine ([1]; day 7, DBZ 30 μmol/kg) | Paneth cells (lysozyme staining), small intestine ([1]; day 7, DBZ 30 μmol/kg) | goblet cell population (Alcian Blue), small intestine ([1]; day 7, DBZ 30 μmol/kg) | progenitor cell proliferation (Ki-67), small intestine ([1]; day 7, DBZ 30 μmol/kg) | intestinal cell fate changes at early time point ([1]; small intestine, day 2) |
| --- | --- | --- | --- | --- | --- | --- | --- | --- | --- | --- | --- | --- | --- |
| C[C@H](NC(=O)Cc1cc(F)cc(F)c1)C(=O)N[C@H](C(=O)OC(C)(C)C)c1ccccc1 [DAPT, reference compound] | reduced to background | reduced to background | decrease in viability | decrease in viability | – | – | – | – | – | – | – | – | – |
| C[C@H](NC(=O)Cc1cc(F)cc(F)c1)C(=O)N[C@@H]1C(=O)N(C)c2ccccc2-c2ccccc21 [DBZ] | – | – | – | – | increased both the number and length | significantly reduced Notch signaling | increased goblet cell numbers | blocked progenitor cell proliferation | inhibition of Hes1 expression | increased the numbers and/or activity of Paneth cells | dramatic expansion | decrease in progenitor cell proliferation | only weakly detectable |
